This test relates to S. Typhi PhoP-promoter GFP reporter, fluorescence, 4 h. Nature of the test: modified counter assay using GFP fluorescence, PhoP regulon inhibitor project, dose response (AID 1985).

pIC50: −log10 of the molar value. “And” between values parts separate entries of the source, which are not always exact repeats. Identical values can stand only once.

Our source for the IC50 values is PubChem BioAssay AID1985 (Southern Research Specialized Biocontainment Screening …, 2009).

A word on the pIC50: it is −log10 of the IC50, conventionally taken in molar units. In the case of `COc1cc(/C=C2/C(=O)NN(c3ccc(C)c(Cl)c3)C2=O)cc([N+](=O)[O-])c1O`, the pIC50 was 4.33.
As for `Cc1ccsc1/C=N/Nc1ccc(C(=O)O)cc1`, the figure is 4.03; as for `COc1ccc(OCC(O)CNc2ccc(Br)cc2)cc1` (stereo not drawn), 5.45; as for `O=C(Nc1csc(Cl)c1)c1ccccc1`, 4.36.
Take `CC1CCC(C(C)C)C(OC(=O)Cn2c(-c3ccc(Cl)cc3)[n+](C)c3ccccc32)C1` (stereo not drawn): the pIC50 was 3.84.
As for `Fc1ccc(Nc2ccnc(Nc3ccc(F)cc3)n2)cc1`, the figure is 4.41; as for `O=C(C[n+]1ccc(-c2ccccc2)cc1)Nc1ccc([N+](=O)[O-])cc1`, 4.56; as for `CO[C@H]1C=CO[C@@]2(C)Oc3c(C)c(O)c4c(O)c(c(C=NN5CCN(C)CC5)c(O)c4c3C2=O)NC(=O)C(C)=CC=C[C@H](C)[C@H](O)[C@@H](C)[C@@H](O)[C@@H](C)[C@H](OC(C)=O)[C@@H]1C`, 4.62.
The value for `CC(C)Cc1c(O)nc(SCC(=O)Nc2ccc3c(c2)CCC3)[nH]c1=O` was 4.02; that for `CN(C)CC/C=C1/c2ccccc2Sc2ccc(Cl)cc21` was 4.06; that for `OC1(c2ccc(Cl)cc2)CCN(Cc2c[nH]c3ccccc23)CC1` was 4.00.
As for `O=c1c(O)cccc2cc(O)c(O)c(O)c12`, the figure is 4.76; as for `NC(=O)c1ccc(N=C2C(=O)Nc3ccc([N+](=O)[O-])cc32)cc1`, 4.50; as for `Cc1c(N2C(=O)/C(=C3\C(=O)N(CC(=O)O)c4ccccc43)SC2=S)c(=O)n(-c2ccccc2)n1C`, 4.04.
Regarding `CCCCCCCCCCCCCCCC[n+]1ccc(/C=N/O)cc1`, the pIC50 is 4.47.
`C=C1c2c(Cl)ccc(O)c2C(O)=C2C(=O)[C@]3(O)C(O)=C(C(N)=O)C(=O)[C@@H](N(C)C)[C@@H]3[C@@H](O)C12` (stereo partly drawn): the pIC50 was 6.03.
As for `CCCCCC[N+](C)(C)CC/C=C1/c2ccccc2Sc2ccc(Cl)cc21`, the figure is 4.44; as for `O=C(CC1NCCc2ccccc21)Nc1ccc(Oc2ccccc2)cc1` (stereo not drawn), 4.10.
The value for `Cc1cc(OCCCCCNCCO)cc(C)c1Cl` was 3.83; that for `Cc1ccc(NC(=O)CS(=O)CC(=O)Nc2ccccc2-c2ccc(C)o2)cc1` (stereo not drawn) was 4.18.
The value for `Clc1ccc(OCCCNCc2ccccc2)c(Br)c1` was 4.36; that for `C/C(=N\NC(=O)c1cccc(Br)c1)c1ccccn1` was 4.26; that for `O=C1C(O)=C(O)C(=O)c2ccccc21` was 4.05.
With `CCCCCCCCCCCCCCCC[n+]1cccc(C(=O)N(CC)CC)c1`, the pIC50 was 4.70.
On to `Cc1nc(N)c(Cc2ccc(Cl)cc2Cl)c(N)n1`, for which the pIC50 is 4.08.
For `O=C(Cn1nc(CNc2ccc(Cl)cc2)[n+]2c1CCCCC2)c1ccc(Br)cc1`, the pIC50 was 4.11.
As for `CCC(C)(C)c1ccc(OCCCC[n+]2ccccc2)c(C(C)(C)CC)c1`, the figure is 4.17.
As for `COc1ccccc1N1CCN(Cc2ccc(O)c3ncccc23)CC1`, the figure is 4.14; as for `O=C(Nc1nonc1NC(=O)c1cccs1)c1cccs1`, 4.00.
The value for `COc1c(N2CCN[C@H](C)C2)c(F)cc2c(=O)c(C(=O)O)cn(C3CC3)c12` was more than 6.64; that for `Nn1cnnc1N/N=C\c1ccc(-c2ccccc2[N+](=O)[O-])o1` was 4.54; that for `COc1cc(Br)cc(C=Nc2cccc(C(F)(F)F)c2)c1O` was 4.16.
As for `Oc1ccc(C[C@@H]2CNCCN2CCC23CC4CC(CC(C4)C2)C3)cc1`, the pIC50 is 4.10.
Consider `COC(=O)C1=C(C)N(Cc2ccccc2)C(=NCc2cccc(C(F)(F)F)c2)N[C@H]1c1cccc(F)c1`, for which the pIC50 is 4.06.
Regarding `c1cc2c(cc1C1CCCCC1)c1c3n2CCCNC3CCC1` (stereo not drawn), the pIC50 is 4.40.
`Cc1ccc(C(OCC(O)CNCc2ccc(F)cc2)c2ccccc2)cc1` (stereo not drawn): the pIC50 is 4.13.
In the case of `COc1cccc(/C=N/NC(=O)c2ccoc2C)c1O`, the pIC50 was 4.05.
The value for `C1=C(CCNCc2ccccc2)CCCC1` was 5.08; that for `CSc1ccc2c(c1)C(N1CCN(C)CC1)Cc1ccccc1S2` (stereo not drawn) was 4.25.
As for `O=C(Nc1ccc2nc(-c3ccc(Br)o3)[nH]c2c1)c1cccs1`, the figure is 4.10.
The value for `OCCCCNCc1ccc(OCc2ccc(Cl)cc2Cl)cc1` was 3.88; that for `COc1ccc(CNCCC(c2ccccc2)c2ccc3c(c2)OCO3)cc1` (stereo not drawn) was 3.83; that for `CN(C)CC/C=C1\c2ccccc2Sc2ccc(Cl)cc21` was 4.01.
On to `Cc1ccc(-c2ccccc2NC(=O)CS(=O)CC(=O)Nc2ccc(C)c(Cl)c2)o1` (stereo not drawn), for which the pIC50 is 4.33.
Consider `Cc1cc([N+](=O)[O-])cc(/C=N/n2c(C)nc3ccccc3c2=O)c1O`, for which the pIC50 was 4.27.
As for `CCc1ccc2c(c1)Sc1ccccc1CC2N1CCN(C)CC1` (stereo not drawn), the pIC50 is 4.11.
As for `CS(=O)(=O)c1ccc2nc(NC(=O)c3ccc(Cl)nc3)sc2c1`, the figure is 4.09; as for `Cc1ccc(-c2c[n+](Cc3ccc(Cl)cc3)c3n2CCC3)cc1`, 4.04; as for `Cc1cc(C)c2c(N)c3ccccc3nc2n1`, 4.07.
For `CCCCCOc1ccc(CSC2=NCCN2)cc1[N+](=O)[O-]`, the pIC50 is 4.02.
The value for `O=C1CSC(=S)N1c1cccc(O)c1` was 4.14; that for `O=C(CC(=O)c1c(F)cccc1Cl)c1ccccc1O` was 4.38.
As for `FC(F)Oc1ccc(NC(=S)NCc2nc3ccccc3[nH]2)cc1`, the figure is 4.47; as for `CC1(C)N=C(N)NC(Nc2ccc(Br)cc2)=N1`, 4.12; as for `OC(CNCCc1ccccc1)COc1ccc(OCC(O)CNCCc2ccccc2)cc1` (stereo not drawn), 4.67.
Take `Fc1ccc(CCNCc2ccccc2Cl)cc1`: the pIC50 was 4.16.
As for `CN1CCN(C2Cc3ccc(Cl)cc3Sc3ccc(F)cc32)CC1` (stereo not drawn), the figure is 4.40.
The value for `CCCCCC(=O)NC(=S)NNC(=O)CC` was 4.07; that for `COc1ccccc1C(C[N+](=O)[O-])c1c(N)n(C)c(=O)n(C)c1=O` (stereo not drawn) was 4.10.
As for `Cc1[nH]c2ccc(OC(F)(F)F)cc2c1CCNCc1ccc(Cl)cc1`, the figure is 4.44; as for `O=C(C[n+]1cccc(CNC(=O)c2ccc(OC(F)F)cc2)c1)Nc1ccc(SC(F)F)cc1`, 4.38.
`O=C(Nc1nnc(-c2cccs2)o1)c1cccc(Oc2ccccc2)c1`: the pIC50 was 4.40.
As for `Cc1cccc(Nc2nc(NCc3ccco3)c3ccccc3n2)c1`, the figure is 4.96.
As for `O=c1cc(-c2ccccc2)nc2nc(-c3ccco3)[nH]n12`, the figure is 3.86; as for `Cc1ccc(Cn2c(=N)n(CC(O)COc3ccccc3)c3ccccc32)cc1` (stereo not drawn), 4.08; as for `CN1CCN(c2c(F)cc3c(=O)c(C(=O)O)cn4c3c2SCC4)CC1`, 5.50 and 5.46.
For `O=C1CC(NC(=O)C(F)(F)F)=NN1c1ccccc1`, the pIC50 is 3.85.
The value for `O=C(CSc1ccccn1)N/N=C/c1c[nH]c2ccccc12` was 3.87; that for `CN(C)CCCNc1cc(C(C)(C)C)nc2c(-c3ccccc3)cnn12` was 4.12; that for `c1ccc2cc(CSCc3nc4ccccc4[nH]3)ccc2c1` was 3.99.
Take `O=S(=O)(Nc1ncccn1)c1ccc(NC(=S)Nc2cccc(Cl)c2)cc1`: the pIC50 is 4.02.
As for `CCCCOc1ccc(CSC(=N)N)cc1Cl`, the figure is 4.50; as for `CCN(CC)c1ccc(CNc2nc3ccccc3n2CCN2CCCCC2)cc1`, 3.84.
